Assay results reported in the supplement of paper PMC10307832.

Assays:
Test in all cases: relative viability (nuclei count vs DMSO), 5 days (fraction); higher = more cells survive
NCI-H2228 = test system: NCI-H2228
Summary of the method: (§1)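 One day after seeding in 1536-well plates, lung cancer cell lines were dosed by pin tool. Dosing was either single-drug or a fixed anchor-drug dose plus five library-drug doses (not always all listed) in √10 steps. After 5 days, nuclei were stained in one fix-and-stain step and counted on 4× images, and relative viability is the nuclei count of treated wells over that of vehicle wells, given as the median of duplicate plates.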

NCI-H1395 = test system: NCI-H1395
Summary of the method: as §1

NCI-H1793 = test system: NCI-H1793
Summary of the method: as §1

BEN = test system: BEN
Summary of the method: as §1

NCI-H647 = test system: NCI-H647
Summary of the method: as §1

NCI-H1437 = test system: NCI-H1437
Summary of the method: as §1

LXF-289 = test system: LXF-289
Summary of the method: as §1

LCLC-97TM1 = test system: LCLC-97TM1
Summary of the method: as §1

NCI-H1792 = test system: NCI-H1792
Summary of the method: as §1

RERF-LC-KJ = test system: RERF-LC-KJ
Summary of the method: as §1

NCI-H322M = test system: NCI-H322M
Summary of the method: as §1

HCC-827 = test system: HCC-827
Summary of the method: as §1

NCI-H2405 = test system: NCI-H2405
Summary of the method: as §1

NCI-H1650 = test system: NCI-H1650
Summary of the method: as §1

201T = test system: 201T
Summary of the method: as §1

NCI-H2087 = test system: NCI-H2087
Summary of the method: as §1

SK-LU-1 = test system: SK-LU-1
Summary of the method: as §1

LCLC-103H = test system: LCLC-103H
Summary of the method: as §1

NCI-H1944 = test system: NCI-H1944
Summary of the method: as §1

NCI-H3122 = test system: NCI-H3122
Summary of the method: as §1

CAL-12T = test system: CAL-12T
Summary of the method: as §1

Compound: O=c1cc(-c2cccc3c2Sc2ccccc2S3)oc(N2CCOCC2)c1 + Nc1nc2[nH]cc(CCc3ccc(C(=O)N[C@@H](CCC(=O)O)C(=O)O)cc3)c2c(=O)[nH]1 [Pemetrexed] (partner 0.2 µM)
- relative viability (NCI-H2228; first compound 0.08 µM): 0.351
- relative viability (NCI-H2228; first compound 0.253 µM): 0.359
- relative viability (NCI-H2228; first compound 0.8 µM): 0.336
- relative viability (NCI-H2228; first compound 2.53 µM): 0.355
- relative viability (NCI-H2228; first compound 8 µM): 0.473
- relative viability (NCI-H1395; first compound 0.08 µM): 0.842
- relative viability (NCI-H1395; first compound 0.253 µM): 0.764
- relative viability (NCI-H1395; first compound 0.8 µM): 0.936
- relative viability (NCI-H1395; first compound 2.53 µM): 0.765
- relative viability (NCI-H1395; first compound 8 µM): 1.09
- relative viability (NCI-H1793; first compound 0.08 µM): 0.728
- relative viability (NCI-H1793; first compound 0.253 µM): 1.04
- relative viability (NCI-H1793; first compound 0.8 µM): 0.798
- relative viability (NCI-H1793; first compound 2.53 µM): 0.679
- relative viability (NCI-H1793; first compound 8 µM): 1.2
- relative viability (BEN; first compound 0.08 µM): 0.72
- relative viability (BEN; first compound 0.253 µM): 0.834
- relative viability (BEN; first compound 0.8 µM): 0.696
- relative viability (BEN; first compound 2.53 µM): 0.801
- relative viability (BEN; first compound 8 µM): 1.07
- relative viability (NCI-H647; first compound 0.08 µM): 0.168
- relative viability (NCI-H647; first compound 0.253 µM): 0.149
- relative viability (NCI-H647; first compound 0.8 µM): 0.17
- relative viability (NCI-H647; first compound 2.53 µM): 0.169
- relative viability (NCI-H647; first compound 8 µM): 0.159
- relative viability (NCI-H1437; first compound 0.08 µM): 0.339
- relative viability (NCI-H1437; first compound 0.253 µM): 0.354
- relative viability (NCI-H1437; first compound 0.8 µM): 0.435
- relative viability (NCI-H1437; first compound 2.53 µM): 0.288
- relative viability (NCI-H1437; first compound 8 µM): 0.3
- relative viability (LXF-289; first compound 0.08 µM): 0.95
- relative viability (LXF-289; first compound 0.253 µM): 0.96
- relative viability (LXF-289; first compound 0.8 µM): 0.975
- relative viability (LXF-289; first compound 2.53 µM): 0.93
- relative viability (LXF-289; first compound 8 µM): 1.03
- relative viability (LCLC-97TM1; first compound 0.08 µM): 0.175
- relative viability (LCLC-97TM1; first compound 0.253 µM): 0.169
- relative viability (LCLC-97TM1; first compound 0.8 µM): 0.18
- relative viability (LCLC-97TM1; first compound 2.53 µM): 0.177
- relative viability (LCLC-97TM1; first compound 8 µM): 0.175
- relative viability (NCI-H1792; first compound 0.08 µM): 0.75
- relative viability (NCI-H1792; first compound 0.253 µM): 1.54
- relative viability (NCI-H1792; first compound 0.8 µM): 0.775
- relative viability (NCI-H1792; first compound 2.53 µM): 0.776
- relative viability (NCI-H1792; first compound 8 µM): 0.729
- relative viability (RERF-LC-KJ; first compound 0.08 µM): 0.443
- relative viability (RERF-LC-KJ; first compound 0.253 µM): 0.469
- relative viability (RERF-LC-KJ; first compound 0.8 µM): 0.504
- relative viability (RERF-LC-KJ; first compound 2.53 µM): 0.474
- relative viability (RERF-LC-KJ; first compound 8 µM): 0.469
- relative viability (NCI-H322M; first compound 0.08 µM): 0.57
- relative viability (NCI-H322M; first compound 0.253 µM): 0.61
- relative viability (NCI-H322M; first compound 0.8 µM): 0.598
- relative viability (NCI-H322M; first compound 2.53 µM): 0.634
- relative viability (NCI-H322M; first compound 8 µM): 0.602
- relative viability (HCC-827; first compound 0.08 µM): 0.231
- relative viability (HCC-827; first compound 0.253 µM): 0.272
- relative viability (HCC-827; first compound 0.8 µM): 0.244
- relative viability (HCC-827; first compound 2.53 µM): 0.264
- relative viability (HCC-827; first compound 8 µM): 0.228
- relative viability (NCI-H2405; first compound 0.08 µM): 0.859
- relative viability (NCI-H2405; first compound 0.253 µM): 1.1
- relative viability (NCI-H2405; first compound 0.8 µM): 1.06
- relative viability (NCI-H2405; first compound 2.53 µM): 0.83
- relative viability (NCI-H2405; first compound 8 µM): 1.02
- relative viability (NCI-H1650; first compound 0.08 µM): 0.362
- relative viability (NCI-H1650; first compound 0.253 µM): 0.366
- relative viability (NCI-H1650; first compound 0.8 µM): 0.407
- relative viability (NCI-H1650; first compound 2.53 µM): 0.415
- relative viability (NCI-H1650; first compound 8 µM): 0.36
- relative viability (201T; first compound 0.08 µM): 0.302
- relative viability (201T; first compound 0.253 µM): 0.353
- relative viability (201T; first compound 0.8 µM): 0.37
- relative viability (201T; first compound 2.53 µM): 0.287
- relative viability (201T; first compound 8 µM): 0.302
- relative viability (NCI-H2087; first compound 0.08 µM): 0.669
- relative viability (NCI-H2087; first compound 0.253 µM): 0.662
- relative viability (NCI-H2087; first compound 0.8 µM): 0.726
- relative viability (NCI-H2087; first compound 2.53 µM): 0.649
- relative viability (NCI-H2087; first compound 8 µM): 0.674
- relative viability (SK-LU-1; first compound 0.08 µM): 1.1
- relative viability (SK-LU-1; first compound 0.253 µM): 1.27
- relative viability (SK-LU-1; first compound 0.8 µM): 1.14
- relative viability (SK-LU-1; first compound 2.53 µM): 0.885
- relative viability (SK-LU-1; first compound 8 µM): 1.03
- relative viability (LCLC-103H; first compound 0.08 µM): 0.44
- relative viability (LCLC-103H; first compound 0.253 µM): 0.467
- relative viability (LCLC-103H; first compound 0.8 µM): 0.473
- relative viability (LCLC-103H; first compound 2.53 µM): 0.423
- relative viability (LCLC-103H; first compound 8 µM): 0.438
- relative viability (NCI-H1944; first compound 0.08 µM): 0.642
- relative viability (NCI-H1944; first compound 0.253 µM): 0.518
- relative viability (NCI-H1944; first compound 0.8 µM): 0.636
- relative viability (NCI-H1944; first compound 2.53 µM): 0.516
- relative viability (NCI-H1944; first compound 8 µM): 0.698
- relative viability (NCI-H3122; first compound 0.08 µM): 0.205
- relative viability (NCI-H3122; first compound 0.253 µM): 0.197
- relative viability (NCI-H3122; first compound 0.8 µM): 0.186
- relative viability (NCI-H3122; first compound 2.53 µM): 0.191
- relative viability (NCI-H3122; first compound 8 µM): 0.18
- relative viability (CAL-12T; first compound 0.08 µM): 1.25
- relative viability (CAL-12T; first compound 0.253 µM): 1.39
- relative viability (CAL-12T; first compound 0.8 µM): 1.18
- relative viability (CAL-12T; first compound 2.53 µM): 1.04
- relative viability (CAL-12T; first compound 8 µM): 1.03
